For this assay, the target named is T1, recombinant Flag-tagged KCC2 (Rattus norvegicus, UniProt Q63633).
T1 construct: expressed in transfected cells; host or cells: primary rat hippocampal neurons, transfected at DIV 13-14 with Transfectin
T1 sequence (Q63633 1-1116 isoform Q63633-2): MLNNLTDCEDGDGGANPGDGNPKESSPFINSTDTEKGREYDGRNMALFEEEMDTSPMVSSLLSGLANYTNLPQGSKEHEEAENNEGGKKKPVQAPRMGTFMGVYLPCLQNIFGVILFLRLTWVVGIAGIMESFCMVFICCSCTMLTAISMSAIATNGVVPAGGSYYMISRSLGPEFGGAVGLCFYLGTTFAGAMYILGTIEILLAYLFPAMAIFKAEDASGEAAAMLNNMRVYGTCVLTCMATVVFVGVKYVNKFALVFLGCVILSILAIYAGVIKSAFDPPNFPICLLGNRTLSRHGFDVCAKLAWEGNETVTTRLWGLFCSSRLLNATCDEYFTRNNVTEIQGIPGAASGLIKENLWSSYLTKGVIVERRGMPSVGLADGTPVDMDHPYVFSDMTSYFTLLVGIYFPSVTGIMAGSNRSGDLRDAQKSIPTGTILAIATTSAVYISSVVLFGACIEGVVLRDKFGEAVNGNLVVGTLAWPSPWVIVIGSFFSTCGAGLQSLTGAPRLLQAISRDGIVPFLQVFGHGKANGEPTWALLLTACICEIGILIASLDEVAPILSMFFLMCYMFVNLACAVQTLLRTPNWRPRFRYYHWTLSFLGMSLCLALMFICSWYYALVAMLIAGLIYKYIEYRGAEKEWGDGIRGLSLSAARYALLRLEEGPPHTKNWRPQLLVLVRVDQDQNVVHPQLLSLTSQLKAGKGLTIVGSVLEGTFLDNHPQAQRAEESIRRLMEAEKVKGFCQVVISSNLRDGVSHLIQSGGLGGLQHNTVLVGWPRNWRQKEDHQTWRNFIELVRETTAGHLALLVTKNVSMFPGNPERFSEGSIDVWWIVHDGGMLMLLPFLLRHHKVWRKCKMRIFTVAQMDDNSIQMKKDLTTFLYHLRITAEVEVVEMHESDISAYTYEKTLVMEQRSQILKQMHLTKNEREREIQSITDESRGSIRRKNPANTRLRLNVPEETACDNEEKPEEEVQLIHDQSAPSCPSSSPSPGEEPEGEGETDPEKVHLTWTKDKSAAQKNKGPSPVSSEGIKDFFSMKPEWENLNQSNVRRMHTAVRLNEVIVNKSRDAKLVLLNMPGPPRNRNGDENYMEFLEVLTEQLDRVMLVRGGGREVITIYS
The assay is described as follows: Quantum dot-based single particle tracking of KCC2 membrane lateral diffusion. The following applies: vs DMSO. The format is cell-based. The procedure:
For all experiments on hippocampal cultures, neurons were pre-incubated for 2 hours with either DMSO, PCPZ or CLP257 in a CO2 incubator set at 37° C. Drugs were added directly to the culture medium. For electrophysiology experiments, neurons were also recorded in presence of these drugs in the bath. For biochemistry experiments on rat hippocampo-cortical slices, slices were incubated with either DMSO (vehicle), CLP257, PCPZ, WNK463 or sodium orthovanadate for 2 hours in interface chambers set at 37° C. For human tissue experiments, slices were pre-incubated with either DMSO, CLP257 or PCPZ for 2 hours in interface chambers set at 37° C. and then also recorded in presence of these compounds.
For single-particle-tracking experiments, a previously described KCC2-Flag construct was used. […] All constructs were sequenced by Beckman Coulter Genomics (Hope End, Takeley, U.K). Neuronal transfections were performed at DIV 13-14 using Transfectin (BioRad), according to manufacturer's instructions (DNA:transfectin ratio 1 μg:3 μl), with 1-1.5 μg of plasmid DNA per 20 mm well. Experiments were performed 7-10 days post-transfection.
Neurons were stained as previously described. Briefly, cells were incubated for 6 min at 37° C. with a mouse anti-Flag antibody (mouse, 1:300, Sigma-Aldrich), washed and incubated for 6 min at 37° C. with a biotinylated Fab goat anti-mouse antibody (1:300; Jackson Immuno Research) in imaging medium. After washes, cells were incubated for 1 min with streptavidin-coated quantum dots (QDs) emitting at 655 nm (1 nM; Invitrogen) supplemented with PBS ([…]; Invitrogen) and 10% Casein (v/v) (Sigma).
Cells were imaged using an Olympus IX71 inverted microscope equipped with a 60× objective (NA 1.42; Olympus) and a 120 W Mercury lamp (X-Cite 120Q, Lumen Dynamics). QD real time recordings (integration time of 30 ms over 1200 consecutive frames) were acquired with an ImagEM EMCCD camera and MetaView software (Meta Imaging 7.7). Cells were imaged within 45 min following appropriate drugs pre-incubation.
QD tracking and trajectory reconstruction were performed with homemade Matlab routines, as described. For each imaged neuron, one or two dendritic subregions were quantified. Mean square displacement (MSD) over time plots were calculated as described and diffusion coefficients (D) were calculated by fitting the first four points without origin of the MSD vs. time curves with the equation: MSD(nτ)=4Dnτ+b, where b is a constant reflecting the spot localization accuracy. The explored area of each trajectory was defined as the MSD value of the trajectory at two different time intervals of at 0.42 and 0.45 s.

On to `O=C1N=C(N2CCCCN2)S/C1=C\c1ccc(F)cc1O` [CLP257, (5Z)-5-[(4-Fluoro-2-hydroxyphenyl)methylene]-2-(tetrahydro-1-(2H)-pyridazinyl)-4(5H)-thiazolone], for which, under “100 μM CLP257, 2 h”, the “change of KCC2 diffusion coefficient, extrasynaptic” value is −20.74±4.85%; the “change of KCC2 diffusion coefficient, synaptic” value is on record as “+9.39±11.21%”; the “change of KCC2 explored area, extrasynaptic” value was −25.14±2.73%; the “change of KCC2 explored area, synaptic” value is on record as “+4.93±19.40%”.
On to `CN1CCN(CCCN2c3ccccc3Sc3ccc(Cl)cc32)CC1` [PCPZ, prochlorperazine], for which, under “10 μM PCPZ, 2 h”, the “change of KCC2 diffusion coefficient, extrasynaptic” value is −36.54±14.91%; the “change of KCC2 diffusion coefficient, synaptic” value was −26.22±14.00%; the “change of KCC2 explored area, extrasynaptic” value is given as −39.70±17.18%; the “change of KCC2 explored area, synaptic” value is on record as −30.632±25.44%.

For the origin of these results see patent publication US20240197728A1, “METHODS AND PHARMACEUTICAL COMPOSITIONS FOR TREATING REFRACTORY EPILEPSY” (INSERM (INSTITUT NATIONAL DE LA SANTÉ ET DE LA RECHERCHE …, priority 2021, published 2024).
